This is an account of results in patent US20170304288A1, “Formulations of Methionine Aminopeptidase Inhibitors for Treating Infectious Diseases” (Texas Southern University, priority 2013, published 2017).

Series [1] concerns M. tuberculosis H37Ra. Put plainly: Activity against dormant (aged non-growing) M. tuberculosis, XTT. Particulars: for MIC: Mycobacterium tuberculosis, H37RA, read-out: MIC dormant M. tuberculosis Strain H37Ra. It is filed as cell-based, Mycobacterium tuberculosis. On the procedure:
The activity of the compounds in aged non-growing M. tuberculosis was achieved using a perister model at concentrations […] and monitored for three weeks. Briefly, 2 month old M. tuberculosis H37Ra culture was grown in 7H9 medium (Difco) with 10% albumin dextrose catalase (ADC) and 0.05% Tween 80. […] The compound was diluted from a 10 mM (in DMSO) to 10 μM (final concentration) and incubated with the bacilli in […] 7H9 medium (pH 5.5) without ADC in a 96-well plate for three days without shanking under 1% oxygen in a hypoxic chamber. This assay was performed in duplicates with Rifampin (5 mg/mL). Following a 3 day drug exposure, bacilli viability was determined by adding […] of 1 mg/mL of XTT (2,3-bis-(2-methoxy-4-nitro-5-sulfophenyl)-2H-tetrazolium-5-carboxanilide) and incubated at 37° C. for up to 7 days. The 96 well plates were then read at OD 485 nm.
A general note: Tetrazolium assays rely on reduction of a dye to a coloured formazan, in cell work by metabolically active cells.

Series [2] deals with T1, EfMetAP1 (Enterococcus faecalis, UniProt Q832M5).
T1 sequence (Q832M5 1-254): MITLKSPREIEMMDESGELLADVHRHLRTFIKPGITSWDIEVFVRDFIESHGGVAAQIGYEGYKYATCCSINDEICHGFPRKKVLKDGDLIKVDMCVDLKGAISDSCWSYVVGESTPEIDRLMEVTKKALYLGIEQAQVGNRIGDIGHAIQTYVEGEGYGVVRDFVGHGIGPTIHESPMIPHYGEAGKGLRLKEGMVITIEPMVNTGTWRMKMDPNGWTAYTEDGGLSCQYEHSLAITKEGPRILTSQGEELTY
Put plainly: EfMetAP1 inhibition, coupled methionine-proline aminopeptidase assay. It is filed as biochemical, E. faecalis. The protocol:
175,000 compounds were screened against EfMetAP1, using the coupled methionine-proline aminopeptidase spectrophotometric assay (FIG. 7A). The primary screen was performed at final concentrations of 30 μM in 384-well plates using a titertek instrument with liquid handling capabilities coupled to a spectrophotometer. The compounds were dissolved in dimethylsulfoxide (DMSO) and the total reaction volume was 50 μL where each reaction contained 40 mM Hepes buffer (pH 7.5), 100 mM NaCl, 100 μg/mL BSA, 0.1 U/mL ProAP, 1.5 mM CoCl2, 600 μM substrate (Met-Pro-pNA), and 1.38 μM EfMetAP1. The Enzyme was pre-incubated with compounds for 20 min at room temperature followed by addition of substrate. The reaction was incubated at room temperature for 30 min and monitored at 405 nm on a spectrophotometer. […] The background hydrolysis was corrected and the data was fitted against the sigmoidal-dose response (variable slope) equation using GraphPad prism software.

Series [3] deals with HIV-1 (89.6 strain). The series can be described thus: microbe, parasite or virus in culture. It is filed as cell-based. As to conditions: for IC50: Human immunodeficiency virus 1, PBMC, read-out: concentration required for 50% inhibition of HIV1 p24 produced, primary screen, preliminary; for inhibition of HIV-1 p24 antigen production: HIV-1 infected PBMC, ELISA; for inhibitory concentration equivalent to negative control (blank): p24 ELISA.

In series [4] the test system is M. bovis BCG. It is filed as cell-based, Mycobacterium bovis. Particulars: for CFU from cellular lysates (intracellular M. bovis BCG): 7 d p.i., RIF 5.0 μg/mL, INH 0.1 μg/mL.
The subject of series [5] is M. tuberculosis CDC 1551. Put plainly: Minimum Inhibitory Concentration in replicating M. tuberculosis. It is filed as cell-based, Mycobacterium tuberculosis. Particulars: replicating culture; for MIC: Mycobacterium tuberculosis, CDC1551, read-out: Minimum Inhibitory Concentration Wild-type M. tuberculosis Strain CDC1551.
Series [6] concerns the target MtMetAP1c (Mycobacterium tuberculosis, UniProt P9WK19). The series can be described thus: MetAP enzyme inhibition IC50 (Met-Pro-pNA coupled assay). It is filed as biochemical. On the procedure:
A primary high throughput screen was conducted using MAP-C2 microplate processor (Titertek Instruments, Inc., Huntsville, Ala. USA). A library of 175,000 compounds at 30 μM were assayed in a 384 well plates using a dipeptide chromogenic substrate, methionine-proline coupled to p-Nitroaniline (Met-Pro-pNA). Each compound was dissolved in DMSO and stored at −20° C. until use. The total reaction volume was 50 μL, and each reaction contained 40 mM HEPES buffer (pH 7.5), 100 mM NaCl, […], 0.1 U/mL ProAP, 1.5 mM CoCl2, […] (Met-Pro-pNA), and 252 nM MtMetAP1c. The enzyme was pre-incubated with compounds for 20 minutes at room temperature followed by addition of […]. The reaction was then incubated at room temperature for 30 min and monitored at 405 nm on a spectrophotometer.
(§1) The enzyme was pre-incubated with compounds for 20 minutes at room temperature followed by addition of substrate. The reaction was incubated at room temperature for 30 min and monitored at 405 nm on a spectrophotometer. The background hydrolysis was subtracted and the data was fitted to a four-parameter logistic (variable slope) equation using GraphPad Prism software.

The target of series [7] is HsMetAP1 (Homo sapiens, UniProt P53582). Put plainly: MetAP enzyme inhibition IC50. It is filed as biochemical. On the procedure:
as §1

The target of series [8] is HsMetAP2 (Homo sapiens, UniProt P50579). Put plainly: MetAP enzyme inhibition IC50. It is filed as biochemical. The protocol: as §1
Series [9] concerns the target MtMetAP1a (Mycobacterium tuberculosis, UniProt P9WK21). The series can be described thus: MetAP enzyme inhibition IC50 (Met-Pro-pNA coupled assay). In kind it is biochemical.
In series [10] the test system is L. major promastigotes over-expressing LmMetAP1. Put plainly: Leishmania major luciferase assay, promastigotes over-expressing LmMetAP1. It is filed as cell-based. Particulars: read-out: L. major promastigotes over-expressing LmMetAP1 EC50.
Procedure: (§2) Compounds were screened against L. major strain friedlin clone V1 promastigotes expressing firefly luciferase at concentrations ranging from 100 μM-780 nM in a 96 well plate. These experiments were done in triplicates using L. major media and 10^6 parasites per well. The plates were incubated for 24, 48, 72 and 96 hours at 28° C. Amphotericin B (AB) was used as a positive control at 5 μM as a comparison to the leishmanicidal activity of the inhibitors. The inhibitory effects of the compounds were assessed by monitoring parasite survival through luciferase activity. The substrate 5′-fluoroluciferin (ONE-Glo Luciferase Assay System, Promega, Madison, Wis.) was added according to the manufacturer's protocol after each time point. The plates were read using a luminometer (Luminoskan, Thermo Scientific, Rockford, Ill.). Data was analyzed using GraphPad Prism Software (GraphPad Software, Inc., La Jolla, Calif.).
LmMetAP1 was cloned in the Leishmania expression vector pXG, and parasites were transfected. The parasites overexpressing LmMetAP1 were selected for and cloned.
In series [11] the test system is HIV-1 transcription. As to conditions: Debebe et. al. 2007; cited from earlier work.
In series [12] the target is T2, LmMetAP1 (Leishmania major, UniProt Q4QDG7).
T2 sequence (Q4QDG7 1-401): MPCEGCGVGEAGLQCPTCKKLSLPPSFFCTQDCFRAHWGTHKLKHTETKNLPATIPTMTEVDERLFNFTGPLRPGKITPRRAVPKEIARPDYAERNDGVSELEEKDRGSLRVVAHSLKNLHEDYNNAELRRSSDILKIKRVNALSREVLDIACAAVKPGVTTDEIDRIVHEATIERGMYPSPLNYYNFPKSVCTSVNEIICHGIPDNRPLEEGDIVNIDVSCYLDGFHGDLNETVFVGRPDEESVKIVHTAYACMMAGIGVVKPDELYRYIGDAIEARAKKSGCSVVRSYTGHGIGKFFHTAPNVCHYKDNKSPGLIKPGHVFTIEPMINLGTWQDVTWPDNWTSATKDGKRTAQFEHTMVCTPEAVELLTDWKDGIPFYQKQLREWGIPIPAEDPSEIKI
Put plainly: LmMetAP1 enzyme inhibition (l-Met-pNA). In kind it is biochemical.
Source text: After cloning, overexpressing and purifying the protein to near homogeneity, the chromogenic substrate I-methionine-p-nitroanalide (I-Met-pNA) (Sigma) was used to determine inhibition of the enzyme using various compounds (Mitra et al. 2006).

Series [13] has as its system Wild-type L. major promastigotes. The series can be described thus: Leishmania major luciferase assay, wild type promastigotes. As to conditions: read-out: Wild-type L. major promastigotes EC50.
Procedure: Promastigote forms of L. major strain Friedlin clone V1 expressing firefly luciferase were grown in M199 medium supplemented with hemin and 10% fetal bovine serum (FBS) inactivated at 56° C. for 30 minutes and treated with 50 ng/mL streptothricin neosulfate for maintenance of LUC gene.
as §2
In series [14] the test system is C. elegans. Put plainly: Toxicity in non-infected C. elegans. As to conditions: 10 μg/mL.
Series [15] concerns E. faecalis V583. Put plainly: Assay of E. faecalis inhibition (MIC) in BHI culture.
The subject of series [16] is E. faecalis OG1RF. The description is as above. As to conditions: Enterococcus faecalis, read-out: Minimum Inhibitory Concentration MIC30 OG1RF.
Series [17] relates to E. faecalis V583. The series can be described thus: Liquid-based C. elegans infection model, survival.
The test system of series [18] is E. faecalis OG1RF. The series can be described thus: Liquid-based C. elegans infection model, survival. It is filed as in vivo, Enterococcus faecalis. As to conditions: C. elegans.

Values after ≈ are worked out from the molar mass of the structure shown. Read-outs that look alike come from different tables or passages of the source.

Chain of MtMetAP1c (P9WK19 whole entry): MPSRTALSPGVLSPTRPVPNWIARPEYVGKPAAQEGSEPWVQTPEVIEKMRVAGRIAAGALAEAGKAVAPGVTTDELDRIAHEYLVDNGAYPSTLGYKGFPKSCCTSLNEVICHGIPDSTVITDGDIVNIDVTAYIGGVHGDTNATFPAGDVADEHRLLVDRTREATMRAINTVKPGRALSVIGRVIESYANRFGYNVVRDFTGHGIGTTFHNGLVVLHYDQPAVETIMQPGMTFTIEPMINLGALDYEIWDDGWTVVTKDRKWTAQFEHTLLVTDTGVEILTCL
Chain of HsMetAP2 (P50579 whole entry): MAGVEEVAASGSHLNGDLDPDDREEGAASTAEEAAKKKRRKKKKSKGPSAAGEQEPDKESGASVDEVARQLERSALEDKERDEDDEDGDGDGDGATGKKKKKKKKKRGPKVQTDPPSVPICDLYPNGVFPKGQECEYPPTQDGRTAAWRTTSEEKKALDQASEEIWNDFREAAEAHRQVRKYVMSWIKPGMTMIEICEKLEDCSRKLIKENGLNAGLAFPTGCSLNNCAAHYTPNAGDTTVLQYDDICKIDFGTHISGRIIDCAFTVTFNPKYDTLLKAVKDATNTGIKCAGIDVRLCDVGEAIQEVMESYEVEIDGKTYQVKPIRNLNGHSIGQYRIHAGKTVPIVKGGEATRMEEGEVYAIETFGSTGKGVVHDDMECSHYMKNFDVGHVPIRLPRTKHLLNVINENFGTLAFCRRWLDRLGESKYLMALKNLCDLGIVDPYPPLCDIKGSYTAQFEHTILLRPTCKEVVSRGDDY
Chain of MtMetAP1a (P9WK21 whole entry): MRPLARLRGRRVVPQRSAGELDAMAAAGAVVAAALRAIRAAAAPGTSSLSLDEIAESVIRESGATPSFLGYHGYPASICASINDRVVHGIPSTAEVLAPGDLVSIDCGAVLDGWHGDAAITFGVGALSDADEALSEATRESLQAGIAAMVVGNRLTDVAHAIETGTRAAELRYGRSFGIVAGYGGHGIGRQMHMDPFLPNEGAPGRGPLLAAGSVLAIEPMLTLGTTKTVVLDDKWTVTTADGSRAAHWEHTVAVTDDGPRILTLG

On to `Oc1ccccc1/C=N/Nc1ncnc2sc3c(c12)CCCC3` [drawing 26], for which the MIC in [1] was found to be 25 µM (≈ 8.11 µg/mL).
On the same count and under the same terms, for `O=C(N/N=C/c1c(O)ccc2ccccc12)c1ccncc1` [drawing 25] the value was 6.25 µM (≈ 1.82 µg/mL).
The molecule `Oc1c(I)cc(Cl)c2cccnc12` [drawing 38] gave an IC50 in series [2] of 18.4 µM.
`NNC(=O)c1ccncc1` [Isoniazid, reference compound]: in [3], the IC50 was greater than 2 µM. Moreover, the “CFU from cellular lysates (intracellular M. bovis BCG)” value in series [4] was “dramatically reduced CFU”.
As for `O=C(N/N=C/c1c(O)ccc2ccccc12)c1ccncc1` [drawing 22], the “Minimum Inhibitory Concentration Wild-type M. tuberculosis Strain CDC1551” value in [5] is less than 10.0 µg/mL. For the same molecule, the IC50 amounted to 5.3 µM in [6], 315 µM in series [7], 146 µM in series [8] and 4.9 µM in [9].
As to `CO[C@H]1/C=C/O[C@@]2(C)Oc3c(C)c(O)c4c(O)c(c(/C=N/N5CCN(C)CC5)c(O)c4c3C2=O)NC(=O)/C(C)=C\C=C\[C@H](C)[C@H](O)[C@@H](C)[C@@H](O)[C@@H](C)[C@H](OC(C)=O)[C@@H]1C` [RIF, Rifampicin], the “CFU from cellular lysates (intracellular M. bovis BCG)” value in [4] is given as “dramatically reduced CFU”. Also, in [4] (macrophages, 7 days), the “intracellular BCG by flow cytometry” value is “Reduction”.
Turning to `Oc1ccccc1/C=N/Nc1ncnc2sc3c(c12)CCCC3` [drawing 23], the “Minimum Inhibitory Concentration Wild-type M. tuberculosis Strain CDC1551” value in series [5] is less than 10.0 µg/mL. Also, the IC50 in series [6] and in [9] was less than 30 µM throughout.
In series [2], `CC(=O)Oc1c(Cl)cc(Cl)c2cccnc12` gave an IC50 of 14.6 µM.
Take `Cc1nc(-c2ccccn2)nc(N(C)Cc2ccccc2)c1Cl` [drawing 24]: in series [5], the “Minimum Inhibitory Concentration Wild-type M. tuberculosis Strain CDC1551” value is less than 5.0 µg/mL.
In series [2], `Oc1c(Br)cc(Cl)c2cccnc12` [drawing 36] displayed an IC50 of 12 µM.
For orientation: EC50 means the midpoint of the concentration-response curve. With `O=C(N/N=C/c1c(O)ccc2ccccc12)c1ccncc1` [Compound 1, 2-hydroxy-1-naphthylaldehyde isonicotinoyl hydrazone], the EC50 in [10] was greater than 10 µM; in [13] it was 0.64 µM. For the same molecule, the “inhibition of HIV-1 p24 antigen production” value (shortened to “inhibition”) in [3] is recorded as “inhibited the production of HIV-1 p24 antigen in a dose response manner”. Moreover, the “inhibitory concentration equivalent to negative control (blank)” value in series [3] was determined as 274.0 nM. Further, the MIC in series [5] was less than 10 µg/mL. The IC50 in series [7] was 315 µM; in [8] it was 146 µM; in [11], 2 µM; in [12] (read-out: MetAP IC50 LmMetAP1) it was 10 to 100 µM. Besides, the “concentration that perturbed the growth of aged non-growing Mtb bacilli” value in series [1] (XTT) was determined as 1.82 µg/mL.
With `Cc1nc(-c2ccccn2)nc(N(C)Cc2ccccc2)c1Cl` [Compound 3, N-benzyl-5-chloro-N,6-dimethyl-2-(pyridin-2-yl)pyrimidin-4-amine], the concentration giving a half-maximal response (EC50) in series [10] stood at 5 µM; in [13], 0.243 µM. The “inhibition” value in series [3] was “inhibited p24 antigen productions in a dose dependent manner”. For the same molecule, the MIC in [5] is less than 5 µg/mL. This molecule also returned an IC50 in [12] greater than 1 µM.
With `Oc1ccccc1/C=N/Nc1ncnc2sc3c(c12)CCCC3` [Compound 2, 2-{(E)-[2-(5,6,7,8-tetrahydro[1]benzothieno[2,3-d]pyrimidin-4-yl)hydrazinylidene]methyl}phenol], the EC50 was 9 µM in [10] and 0.375 µM in series [13]. Also, the “inhibition” value in [3] is reported as “inhibited p24 antigen productions in a dose dependent manner”. In [3], the “inhibitory concentration equivalent to negative control (blank)” value is on record as 234.0 nM. Besides, the MIC in series [5] is less than 10 µg/mL. In [12], this molecule yielded an IC50 greater than 2.5 µM.
In the case of `CN(C)[C@@H]1C(O)=C(C(N)=O)C(=O)[C@@]2(O)C(O)=C3C(=O)c4c(O)cccc4[C@@](C)(O)[C@H]3C[C@@H]12` [tetracycline], the “survival of non-infected animals” value in [14] was “did not decrease survival”.
As to `Clc1cc2c(c3ncccc13)OCN(C1CCCCC1)C2` [Compound 8, 6-chloro-3-cyclohexyl-3,4-dihydro-2H-[1,3]oxazino[5,6-h]quinolin], the “Minimum Inhibitory Concentration MIC30 V583” value in series [15] lay within 0.50 to 1.50 µg/mL. The MIC lay in the range of 0.5 to 1.5 µg/mL (≈ 1.65 to 4.95 µM) in series [15] (Enterococcus faecalis, V583, read-out: Minimum Inhibitory Concentration MIC30 V583) and 5 to 10 µg/mL (≈ 16.5 to 33 µM) in series [16]. Moreover, the IC50 in series [3] is greater than 3.75 µM; in [2], 5.24 µM. In addition, the “MPC (Minimum Protective Concentration) V583” value in [17] amounted to 4e-11 µg/mL. Further, in [18], the “MPC (Minimum Protective Concentration) OG1RF” value was found to be 4e-11 µg/mL. For the same molecule, the “MmaxPC (Maximum Protective Concentration) OG1RF” value in series [18] was 4e-08 µg/mL.
